Data from patent US6399377B1, “Use of anti-sense sequences to increase responsiveness to gene amplification” (priority 1999, dated 2002).

System: SBP13-30 CHO cells
Test: Acquired sensitivity to MTX of plasmid-transfected cells, crystal violet staining
Assay type: cell-based, chinese hamster
Conditions: 9 μM MTX, 0 μg DNA (non-transfected cells)
Method: In order to assess the level of expression of the anti-sense DHFR sequence and whether its expression effectively blocks DHFR+ expression i.e. renders the cells more responsive/sensitive to MTX treatment, SBP13-30 CHO cells subjected to transfections with three different plasmid concentrations of adHFR2/Neo 0 (control), 100 and 500 μg plasmid DNA, were grown in the absence (controls) or in the presence of MTX (9 μM). Equal amounts of cells from each of the transfections were plated onto duplicate sets of Petri dishes containing standard CHO culture medium, one set receiving cells treated with MTX and the other set receiving untreated cells. When the cells in the dishes without MTX approached confluent growth, the experiment was terminated and the surviving cells were visualized by staining with crystal violet.
As expected, with 0 μM MTX, heavy staining was observed. The staining was moderate-to-heavy in the 9 μM MTX/0 μg DNA dish. […] Cells transfected with high amounts of plasmid (500 μg plasmid DNA/dish) are more sensitive to MTX than cells transfected with lower amounts of plasmid (100 μg plasmid DNA/dish) or the non-transfected control cells (0 μg plasmid/dish). Thus, it is clear that the anti-sense DHFR plasmid successfully transfected the CHO cells and was expressed in these cells. […] In other words, the greater the DHFR^+ inhibition, the greater the MTX toxicity.

Compound: CN(Cc1cnc2nc(N)nc(N)c2n1)c1ccc(C(=O)N[C@@H](CCC(=O)O)C(=O)O)cc1 [MTX, methotrexate]
- crystal violet staining of surviving cells: moderate-to-heavy
